Biological target: Beta-2 adrenergic receptor (Homo sapiens, UniProt P07550)
Experiment: Compound was tested for agonist activity against cloned human beta-2 adrenergic receptor at a concentration of 1000 nM

Beta-2 adrenergic receptor, sequence (P07550 whole entry): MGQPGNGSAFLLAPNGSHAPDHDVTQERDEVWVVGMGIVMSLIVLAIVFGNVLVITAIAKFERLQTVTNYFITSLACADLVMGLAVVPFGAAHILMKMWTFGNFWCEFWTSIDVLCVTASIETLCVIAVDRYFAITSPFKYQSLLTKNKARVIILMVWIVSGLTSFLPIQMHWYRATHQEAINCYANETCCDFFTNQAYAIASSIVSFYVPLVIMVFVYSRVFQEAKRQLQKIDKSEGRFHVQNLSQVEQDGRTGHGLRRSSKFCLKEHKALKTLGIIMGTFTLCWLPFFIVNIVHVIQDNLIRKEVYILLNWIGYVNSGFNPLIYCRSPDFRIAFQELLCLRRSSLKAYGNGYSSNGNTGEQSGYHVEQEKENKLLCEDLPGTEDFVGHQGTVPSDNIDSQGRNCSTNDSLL

EC50: < 0.1 nM
SMILES: COc1ccc(CC[C@H](C)NC[C@@H](O)COc2ccc(O)cc2)cc1 [4-{(R)-2-Hydroxy-3-[(S)-3-(4-methoxy-phenyl)-1-methyl-propylamino]-propoxy}-phenol]
